Laboratory results as given in patent US8822430B2 (Gilead Sciences, Inc., priority 2009, dated 2014).

system: HCV 1b RLuc cells (dicistronic genotype 1b Con1 replicon); test: Renilla luciferase (RLuc)-based HCV replicon reporter assay; format: cell-based, HCV genotype 1b; details: Hepatitis C virus, 72 h, HCV 1b RLuc replicon, 72 hours; read-out: Activity (antiviral potency [EC50])
Procedure: Antiviral potency (EC50) was determined using a Renilla luciferase (RLuc)-based HCV replicon reporter assay. To perform the assay, HCV 1b RLuc cells (harboring a dicistronic genotype 1b Con1 replicon that encodes a RLuc reporter), or HCV 1a RLuc cells (harboring a dicistronic genotype 1a H77 replicon that encodes a RLuc reporter), were dispensed into 384-well plates. Compounds were re-suspended in DMSO at a concentration of 10 mM and serially diluted in DMSO using an automated pipeting instrument. Serially diluted compounds were mixed with cell culture media and added to the seeded cells. DMSO was used as a negative (solvent) control, and the protease inhibitor ITMN-191 was included at a concentration >100×EC50 as a positive control. 72 hours later, cells were lysed and Renilla luciferase activity quantified as recommended by the manufacturer (Promega-Madison, Wis.). Non-linear regression was performed to calculate EC50 values.
Biological data (antiviral potency [EC50] was determined using a Renilla luciferase (RLuc)-based HCV replicon reporter assay—HCV 1b RLuc) for representative compounds of the invention is provided in the following table. These compounds can be prepared using procedures similar to those described above.

Row | Structure (SMILES) | EC50
1 | COC(=O)N[C@H](C(=O)N1CCC[C@H]1C(=O)Nc1ccc(CCc2ccc(NC(=O)[C@@H]3CCCN3C(=O)[C@@H](NC(=O)OC)C(C)C)cc2)cc1)C(C)C | 0.264 nM
2 | COC(=O)N[C@H](C(=O)N1CCC[C@H]1c1ncc(-c2ccc(-n3ccc(-c4cnc([C@@H]5CCCN5C(=O)[C@@H](NC(=O)OC)C(C)C)[nH]4)cc3=O)cc2)[nH]1)C(C)C | 38.1 nM
3 | COC(=O)N[C@H](C(=O)N1CCC(c2ncc(-c3ccc(-c4ccc(-c5cnc([C@@H]6CCCN6C(=O)[C@@H](NC(=O)OC)C(C)C)[nH]5)cc4)cc3)[nH]2)C1)C(C)C (some centres unmarked) | 0.775 nM
4 | COC(=O)N[C@H](C(=O)N1CCC[C@H]1c1ncc(-c2ccc(-c3cnc([C@@H]4CCCN4C(=O)[C@@H](NC(=O)OC)C(C)C)[nH]3)cc2)[nH]1)C(C)C | 1.22 nM
5 | COC(=O)N[C@H](C(=O)N1CCC[C@H]1c1ncc(C#Cc2ccc(-c3ccc4nc([C@@H]5CCCN5C(=O)[C@@H](NC(=O)OC)C(C)C)[nH]c4c3)cc2)[nH]1)C(C)C | 0.0168 nM
6 | COC(=O)N[C@H](C(=O)N1CCC[C@H]1c1ncc(-c2ccc3c(c2)CN(C)C(=O)c2cc(-c4cnc([C@@H]5CCCN5C(=O)[C@@H](NC(=O)OC)C(C)C)[nH]4)ccc2-3)[nH]1)C(C)C | 2.14 nM
7 | COC(=O)N[C@H](C(=O)N1CCC[C@H]1c1ncc(-c2ccc(-c3ccn(-c4cnc([C@@H]5CCCN5C(=O)[C@@H](NC(=O)OC)C(C)C)[nH]4)c(=O)c3)cc2)[nH]1)C(C)C | 15.9 nM
8 | COC(=O)N[C@H](C(=O)N1CCC[C@H]1c1ncc(-c2ccc(-c3ccc(-c4cnc([C@@H]5CN(S(=O)(=O)c6ccccc6)CN5C(=O)[C@@H](NC(=O)OC)C(C)C)[nH]4)cc3)cc2)[nH]1)C(C)C | 0.0788 nM
9 | COC(=O)N[C@H](C(=O)N1CCC[C@H]1c1ncc(-c2ccc(-c3ccc(-c4ccc5nc([C@@H]6CCCN6C(=O)[C@@H](NC(=O)OC)C(C)C)[nH]c5c4)cc3)cc2)[nH]1)C(C)C | 0.0054 nM
10 | COC(=O)N[C@H](C(=O)N1CCC[C@H]1c1ncc(-c2ccc(-c3ccc(-c4ccc5nc([C@@H]6CCCN6C(=O)[C@@H](NC(=O)OC)C(C)C)[nH]c5c4)s3)cc2)[nH]1)C(C)C | 0.003 nM
11 | COC(=O)N[C@H](C(=O)N1CCC[C@H]1c1ncc(C#Cc2ccc(C#Cc3cnc([C@@H]4CCCN4C(=O)[C@@H](NC(=O)OC)C(C)C)[nH]3)cc2)[nH]1)C(C)C | 0.0474 nM
12 | COC(=O)N[C@H](C(=O)N1CCC[C@H]1c1ncc(-c2ccc(-c3ccc(-c4cnc(CN5CCC[C@@H](NC(=O)OC(C)(C)C)C5=O)[nH]4)cc3)cc2)[nH]1)C(C)C | 0.0345 nM
13 | COC(=O)N[C@H](C(=O)N1CCC[C@H]1c1ncc(-c2ccc(-c3ccc(-c4cnc(CN5CCC[C@@H](N)C5=O)[nH]4)cc3)cc2)[nH]1)C(C)C | 7.55 nM
14 | COC(=O)N[C@H](C(=O)N1CCC[C@H]1c1ncc(-c2ccc(-c3ccc(-c4cnc(CN5CCC[C@@H](NC(=O)OC)C5=O)[nH]4)cc3)cc2)[nH]1)C(C)C | 0.239 nM
15 | COC(=O)N[C@H](C(=O)N1CCC[C@H]1c1ncc(C#Cc2cccc3c(C#Cc4cnc([C@@H]5CCCN5C(=O)[C@@H](NC(=O)OC)C(C)C)[nH]4)cccc23)[nH]1)C(C)C | 0.0142 nM
16 | COC(=O)N[C@H](C(=O)N1CN(C(=O)OC(C)(C)C)C[C@H]1C(=O)NCC(=O)c1ccc(-c2ccc(-c3cnc([C@@H]4CCCN4C(=O)[C@@H](NC(=O)OC)C(C)C)[nH]3)cc2)cc1)C(C)C | 3.41 nM
17 | COC(=O)N[C@H](C(=O)N1CCC[C@H]1c1ncc(C#Cc2ccc(-c3ccc(-c4cnc([C@@H]5CCCN5C(=O)[C@@H](NC(=O)OC)C(C)C)[nH]4)cc3)cc2)[nH]1)C(C)C | 0.0115 nM
18 | COC(=O)N[C@H](C(=O)N1CCC[C@H]1c1nc(C(=O)N2CCC3(CC2)CCN(C(=O)c2c[nH]c([C@@H]4CCCN4C(=O)[C@@H](NC(=O)OC)C(C)C)n2)CC3)c[nH]1)C(C)C | > 44.4 nM
19 | COC(=O)N[C@H](C(=O)N1CCC[C@H]1c1ncc(C(=O)N2CCN(c3ccc(-c4cnc([C@@H]5CCCN5C(=O)[C@@H](NC(=O)OC)C(C)C)[nH]4)cc3)CC2)[nH]1)C(C)C | > 44.4 nM
20 | COC(=O)N[C@H](C(=O)NC1(c2ncc(-c3ccc(-c4ccc(-c5cnc([C@@H]6CCCN6C(=O)[C@@H](NC(=O)OC)C(C)C)[nH]5)cc4)cc3)[nH]2)CCC1)C(C)C | 0.0184 nM
21 | COC(=O)N[C@H](C(=O)N1CCC[C@H]1C1=NC(=O)C(C)(c2ccc(-c3ccc(-c4cnc([C@@H]5CCCN5C(=O)[C@@H](NC(=O)OC)C(C)C)[nH]4)cc3)cc2)N1)C(C)C (some centres unmarked) | > 44.4 nM
22 | COC(=O)N[C@H](C(=O)N1CCC[C@H]1c1nc2ccc(-c3ccc(-c4ccc5nc([C@@H]6CCCN6C(=O)[C@@H](NC(=O)OC)C(C)C)[nH]c5c4)s3)cc2[nH]1)C(C)C | 0.0103 nM

Row | Structure (SMILES) | EC50
23 | COC(=O)N[C@H](C(=O)NC1(c2ncc(-c3ccc(-c4ccc(-c5cnc([C@@H]6CCCN6C(=O)[C@@H](NC(=O)OC)C(C)C)[nH]5)cc4)cc3)[nH]2)CC1)C(C)C | 0.0865 nM
24 | COC(=O)N[C@H](C(=O)N1CCC[C@H]1C(=O)Nc1ccc(-c2ccc(-c3ccc(-c4cnc([C@@H]5CCCN5C(=O)[C@@H](NC(=O)OC)C(C)C)[nH]4)cc3)cc2)cc1)C(C)C | 0.0875 nM
25 | COC(=O)N[C@H](C(=O)N1CCC[C@H]1c1ncc(-c2ccc3c(c2)CCc2cc(-c4cnc([C@@H]5CCCN5C(=O)[C@@H](NC(=O)OC)C(C)C)[nH]4)ccc2-3)[nH]1)C(C)C | 0.0099 nM
26 | COC(=O)N[C@H](C(=O)N1CCC[C@H]1c1ncc(-c2ccc3cc4cc(-c5cnc([C@@H]6CCCN6C(=O)[C@@H](NC(=O)OC)C(C)C)[nH]5)ccc4cc3c2)[nH]1)C(C)C | 0.007 nM
27 | COC(=O)N[C@H](C(=O)N1CCC[C@H]1c1nc2ccc(C#Cc3ccc4nc([C@@H]5CCCN5C(=O)[C@@H](NC(=O)OC)C(C)C)[nH]c4c3)cc2[nH]1)C(C)C | 0.139 nM
28 | COC(=O)N[C@H](C(=O)N1CCC[C@H]1c1ncc(-c2ccc3c(c2)Cc2cc(-c4cnc([C@@H]5CCCN5C(=O)[C@@H](NC(=O)OC)C(C)C)[nH]4)ccc2-3)[nH]1)C(C)C | 0.0137 nM
29 | COC(=O)N[C@H](C(=O)N1CCC[C@H]1c1ncc(-c2ccc(-c3ccc(-c4cnc([C@@H]5CN(C(=O)OC)CN5C(=O)[C@@H](NC(=O)OC)C(C)C)[nH]4)cc3)cc2)[nH]1)C(C)C | 0.03 nM
30 | COC(=O)N[C@H](C(=O)N1CCC[C@H]1c1ncc(-c2ccc3c(c2)C(=O)c2cc(-c4cnc([C@@H]5CCCN5C(=O)[C@@H](NC(=O)OC)C(C)C)[nH]4)ccc2-3)[nH]1)C(C)C | 0.0184 nM
31 | COC(=O)N[C@H](C(=O)N1CCC[C@H]1c1ncc(-c2ccc(/C=C/c3ccc(-c4cnc([C@@H]5CCCN5C(=O)[C@@H](NC(=O)OC)C(C)C)[nH]4)cc3)cc2)[nH]1)C(C)C | 0.0264 nM
32 | COC(=O)N[C@H](C(=O)N1CCC[C@H]1c1ncc(-c2ccc(-c3ccc(-c4cnc([C@@H]5CCCN5C(=O)[C@@H](NC(=O)OC)C(C)(C)S(C)(=O)=O)[nH]4)cc3)cc2)[nH]1)C(C)C | 0.161 nM
33 | COC(=O)N[C@H](C(=O)N1CCC[C@H]1c1nc2ccc(-c3ccc(-c4ccc(-c5cnc([C@@H]6[C@H]7CC[C@H](C7)N6C(=O)[C@@H](NC(=O)OC)C(C)C)[nH]5)cc4)cc3)cc2[nH]1)C(C)C | 0.0213 nM
34 | COC(=O)N[C@H](C(=O)N1CCC[C@H]1c1ncc(-c2ccc(-c3ccc(-c4cnc([C@@H]5CCCN5C(=O)[C@@H](NC(=O)OC)C(C)C)[nH]4)cc3C#N)cc2)[nH]1)C(C)C | 0.0158 nM
35 | COC(=O)N[C@H](C(=O)N1CCC[C@H]1c1ncc(C#Cc2ccc3cc(-c4cnc([C@@H]5CCCN5C(=O)[C@@H](NC(=O)OC)C(C)C)[nH]4)ccc3c2)[nH]1)C(C)C | 0.0106 nM
36 | COC(=O)N[C@H](C(=O)N1CCC[C@H]1c1nc2ccc(C#CC#Cc3ccc4nc([C@@H]5CCCN5C(=O)[C@@H](NC(=O)OC)C(C)C)[nH]c4c3)cc2[nH]1)C(C)C | 0.0261 nM
37 | COC(=O)N[C@H](C(=O)N1CCC[C@H]1c1ncc(-c2ccc(-c3ccc(-c4cnc([C@H](C)N5CCC[C@@H](NC(=O)OC)C5=O)[nH]4)cc3)cc2)[nH]1)C(C)C | 0.661 nM
38 | COC(=O)N[C@H](C(=O)N1CCC[C@H]1c1nc2ccc(-c3ccc4cc(-c5ccc6nc([C@@H]7CCCN7C(=O)[C@@H](NC(=O)OC)C(C)C)[nH]c6c5)ccc4c3)cc2[nH]1)C(C)C | < 0.0041 nM
39 | COC(=O)N[C@H](C(=O)N1CCC[C@H]1c1ncc(-c2ccc3c(c2)COCc2cc(-c4cnc([C@@H]5[C@H]6CC[C@H](C6)N5C(=O)[C@@H](NC(=O)OC)C(C)C)[nH]4)ccc2-3)[nH]1)C(C)C | 0.0221 nM
40 | COC(=O)N[C@H](C(=O)N1CCC[C@H]1c1ncc(-c2ccc3cc(-c4ccc5cc(-c6cnc([C@@H]7CCCN7C(=O)[C@@H](NC(=O)OC)C(C)C)[nH]6)ccc5c4)ccc3c2)[nH]1)C(C)C | 0.0239 nM
41 | COC(=O)N[C@H](C(=O)N1CCC[C@H]1c1ncc(-c2ccc(C#Cc3ccc(-c4cnc([C@@H]5CN(CC(F)(F)F)CCN5C(=O)[C@@H](NC(=O)OC)C(C)C)[nH]4)cc3)cc2)[nH]1)C(C)C | 1.51 nM
42 | COC(=O)N[C@H](C(=O)N1CCC[C@H]1c1ncc(-c2ccc(C#Cc3ccc(-c4cnc([C@@H]5CN(CC(F)(F)F)CN5C(=O)[C@@H](NC(=O)OC)C(C)C)[nH]4)cc3)cc2)[nH]1)C(C)C | 0.0304 nM
43 | COC(=O)N[C@H](C(=O)N1CCC[C@H]1c1ncc(-c2ccc(-c3ccc4cc(-c5cnc([C@@H]6CCCN6C(=O)[C@@H](NC(=O)OC)C(C)C)[nH]5)ccc4c3)cc2)[nH]1)C(C)C | 0.0047 nM
44 | COC(=O)N[C@H](C(=O)N1CCC[C@H]1c1ncc(-c2ccc3c(c2)Sc2cc(-c4cnc([C@@H]5CCCN5C(=O)[C@@H](NC(=O)OC)C(C)C)[nH]4)ccc2S3)[nH]1)C(C)C | 0.349 nM
